Data on two compounds can be found in patent publication US12350268B2, “Pharmaceutical compositions of PROTAC compounds and uses thereof” (Shenzhen Pharmacin Co., Ltd., priority 2022, dated 2025).

The nature of data set [1]: PK of ARV-110 API capsules, fasted vs high-fat fed beagle dogs. The class given is in vivo. Conditions: API capsules 45 mg oral; for AUC(0-inf) / AUC(0-t) / Cmax: beagle, dog, in vivo, po, 45 mg, geometric mean. The protocol:
Then, the capsule filled with ARV-110 API was prepared to compare the absorption advantage of our ASD formulation. Each capsule contained 45 mg ARV-110 API. The capsules were tested orally in three beagle dogs under two different dosing pretreatments (with or without high-fat food). During the study, the dogs were allowed to drink water freely and were fasted for 12 hours before administration, for the dosing pretreatment of the fasted condition, all dogs were given food 4 hours after drug administration. Each dog was administered together with 50 ml water. For the dosing pretreatment of the fed condition, all dogs were given a high-fat food 30 minutes prior to dosing.
Blood samples were taken from each group of animals at the following time points: 0 h (before test drug administration), and 0.5, 1, 1.5, 2, 3, 4, 5, 6, 8, 10, 12, 24, 48, 72 h after the drug administration. ARV-110 plasma concentrations were analyzed by an LC-MS/MS method. The non-compartment model of software WinNonlin was used to calculate the pharmacokinetic parameters of each dog, Cmax, AUClast and AUCinf. The geometric averages of each parameters were used for comparisons of the in vivo absorption under different doing pretreatments.
The results shown in Table 3C include the geometric mean values as well as coefficient of variation (CV) of the pharmacokinetic parameters of two dosing groups. […] The high-fat fed condition can enhance the oral absorption by about 6-folds compared to fasted condition.

Data set [2] can be described thus: Three-way crossover PK of ARV-110 API and ASD compositions, fed beagle dogs. Particulars: in vivo, 50 mg API per dog oral, fed condition, geometric mean.
Method: The capsules were given at the dose of 50 mg API per dog for oral administration for each group in fed condition.
The conditions of data set [3]: cited from earlier work.
A short description of data set [4]: PK of ARV-110 API, i.v. injection vs oral capsule, fasted beagle dogs (absolute oral bioavailability). Conditions: for AUC(0-inf) / AUC(0-t) / Cmax: fasted condition, geometric mean. Type of data set: in vivo. The protocol: The XRPD testing was performed on both API only (ARV-110) and the ASD formulation Batch No. P210803 using D2-Phasher (Bruker) equipment, and with the following parameters: generator, 30.0 kV/10.0 mA; detector, Lynxeye; wavelength, Cu Kal(1.54060); scan mode, continuous PSD fast; scan range, 4-40 degree; step Size, 0.01 degree; time/step, 0.5 s; sample stage rotation, 15 r/min. […] P210803 were in amorphous state. ARV-110 is still under developing in clinical stage. To measure the absolute oral bioavailability, the capsule filled with ARV-110 API was prepared only for oral administration in fasted condition. API was dissolved in DMA and Solutol mixed solution for injection. Three beagle dogs were tested in two dosing groups, one group was for oral, 50 mg dose per dog, and the other group for injection, 5 mg dose per dog. During the study, the dogs were allowed to drink water freely and were fasted for 12 hours before administration, all dogs were given food 4 hours after drug administration. Each dog was administered together with 50 ml water.
Blood samples were taken from each group of animals at the following time points: 0 h (before test drug administration), and 0.25, 0.5, 1, 1.5, 2, 4, 6, 8, 10, 24 h after the drug administration. ARV-110 plasma concentrations were analyzed by an LC-MS/MS method. The non-compartment model of software WinNonlin was used to calculate the pharmacokinetic parameters of each dog, Cmax, AUClast, and AUCinf. The geometric averages of each parameters were used for comparisons of the in vivo absorption under different dosing pretreatments.
The results shown in Table 3B include the geometric mean values as well as coefficient of variation (CV) of the pharmacokinetic parameters of the two dosing groups. […] The absolute bioavailability of ARV-110 is about 6.0%.

For data set [5] the following is noted: Table 1, footnote 1: Heimbach et al., J Pharm Sci 108 (2019); cited from earlier work.
Data set [6] in a line: Three-way crossover PK of ARV-471 API and ASD compositions, fed beagle dogs. The class given is in vivo. Particulars: dog, plasma, 60 mg of API oral, fed condition, geometric mean. The protocol:
(§1) To investigate the oral absorption of ARV-110, two-way crossover or three-way crossover designs were performed. Six Beagle dogs were classified into two or three groups. Each group was administered capsules of different formulations comprising the API or API only at various dose to compare the API absorption in such formulations and also any difference in API absorption in fasted or fed conditions. Each dog was administered with 50 mL water in total. To measure the absolute bioavailability, i.v. injection of a solution comprising API was also performed. The API solution for i.v. injection was prepared by dissolving in DMA and Solutol mixed solution.
(§2) In fed condition, the dogs were fed with high-fat food 30 mins before administration, according to the FDA guidance entitled “Assessing the effects of food on drug in INDs and NDAs-Clinical pharmacology considerations” published on Feb. 26, 2019.
(§3) Blood samples were taken from each group of animals at the different time points after the drug administration. Plasma concentrations were analyzed by an LC-MS/MS method. The non-compartment model of software WinNonlin was used to calculate the pharmacokinetic parameters of each dog, Cmax, AUClast and AUCinf. The geometric averages of each parameters were used for comparisons of the in vivo absorption under different doing pretreatments.
(§4) To investigate the oral absorption of ARV-471, the same study design and procedures as described in Example 3 were performed.
A six-dog, three-way crossover study was performed to evaluate oral bioavailability of ARV-471 API and ASD compositions in beagle dogs in fed condition. There were three study groups, ARV471 API administered in fed condition ASD composition batch no. P220215-1 administered in fed condition, and ASD composition batch no. P220215-2 administered in fed condition, each containing 2 dogs. Capsules were filled with API powder, ASD composition from batch no. P220215-1 and ASD composition from batch no. P220215-2, respectively. […]

A short description of data set [7]: PK of ARV-471 API high dose, fasted vs fed beagle dogs. The class given is in vivo. Conditions: for AUC(0-inf) / AUC(0-t) / Cmax: beagle, dog, plasma, po, 200 mg, API capsule 200 mg oral, geometric mean. The protocol: as §1
(§5) In fasted condition, the dogs were allowed to drink water freely and were fasted for 12 hours before administration, and then were given food 4 hours after drug administration.
as §2, §3, §4
A six-dog, two-way crossover study was performed to evaluate oral bioavailability of ARV-471 API dose escalation in beagle dogs in fasted and fed condition. There were two study groups, ARV-471 API orally administered in fasted condition and in fed condition, 200 mg of ARV-471 API was filled in each capsule. The capsules were given at the dose of 200 mg API per dog for oral administration for each group. The results shown in Table 5F include the geometric mean values as well as coefficient of variation (CV) of the pharmacokinetic parameters of two dosing groups.

Data set [8] is described as follows: PK of ARV-471 API, oral fasted and fed and i.v., beagle dogs. The class given is in vivo. Conditions: for AUC(0-inf) / AUC(0-t) / Cmax: geometric mean. As to the method: as §1, §5, §2, §3, §4
A three-dog, two-way crossover study was performed to evaluate oral bioavailability of ARV-471 API in beagle dogs in fasted and fed condition. A three-dog study was performed to measure the ARV-471 API bioavailability after i.v. injection in fasted condition. Each capsule was filled with 60 mg of API powder and a 6 mg/vial API solution was prepared. One capsule or one vial of API solution were administered to each dog according to the design of the two studies. The results shown in Table 5B include the geometric mean values as well as coefficient of variation (CV) of the pharmacokinetic parameters of the three dosing groups. […] The absolute bioavailability of ARV-471 API is about 7%, and high-fat food can enhance the oral absorption by 2 times.

The mark [9] stands for this setting: beagle, in vivo, iv, I.V. injection 5 mg per dog.
The mark [10] stands for this setting: beagle, in vivo, API oral capsule 50 mg per dog.
The mark [11] stands for this setting: beagle, dog, plasma, iv, 6 mg, i.v. 6 mg, fasted condition.
The mark [12] stands for this setting: beagle, dog, plasma, po, 60 mg, API capsule oral 60 mg, fasted condition.
Setting [13] is: beagle, dog, plasma, po, 60 mg, API capsule oral 60 mg, fed condition.

Each structure is given as a SMILES string.

Turning to `N#Cc1ccc(O[C@H]2CC[C@H](NC(=O)c3ccc(N4CCC(CN5CCN(c6cc7c(cc6F)C(=O)N(C6CCC(=O)NC6=O)C7=O)CC5)CC4)nn3)CC2)cc1Cl` (some centres unmarked) [ARV-110, N-((1r,4r)-4-(3-chloro-4-cyanophenoxy)cyclohexyl)-6-(4-((4-(2-(2,6-dioxopiperidin-3-yl)-6-fluoro-1,3-dioxoisoindolin-S-yl)piperazin-1-yl)methyl)piperidin-1-yl)pyridazine-3-carboxamide], the “enhancement of oral absorption, high-fat fed vs fasted condition” value in data set [1] was “about 6 folds”. Besides, the “food effect (in words)” value in data set [1] (fed vs fasted) was “significant food effect”. In addition, the total exposure AUC(0-inf) turned out to be 278 ng·h/mL in data set [1] (fasted condition); 1550 ng·h/mL in data set [1] (fed condition (high-fat food)); 3000 ng·h/mL in data set [2]; 866 ng·h/mL in data set [4] (setting [9]); 279 ng·h/mL in data set [4] (setting [10]). In addition, the AUC(0-t) in data set [1] (fasted condition) was 218 ng·h/mL; in data set [1] (fed condition (high-fat food)) it was 1410 ng·h/mL; in data set [2], 2570 ng·h/mL; in data set [4] (setting [9]) it was 588 ng·h/mL; in data set [4] (setting [10]), 162 ng·h/mL. For the same compound, the Cmax was determined as 7.6 ng/mL in data set [1] (fasted condition); 56.5 ng/mL in data set [1] (fed condition (high-fat food)); 80.3 ng/mL in data set [2]; 575 ng/mL in data set [4] (setting [9]); 10.7 ng/mL in data set [4] (setting [10]). Moreover, the “dissolution in the aqueous solution (in words)” value in data set [3] is reported as “very hard to dissolve in the aqueous solution”. Also, the “oral absorption (in words)” value in data set [4] (amorphous API, oral 50 mg, fasted dogs) is reported as “poor absorption in fasted condition”. In addition, the bioavailability in data set [4] (beagle, dog, in vivo, 50 mg per dog, oral 50 mg vs i.v. 5 mg, fasted dogs) was ~6%. For the same compound, in data set [5], the “Calculated log P” value is reported as 5.8^1.
For `O=C1CC[C@H](N2Cc3cc(N4CCN(CC5CCN(c6ccc([C@@H]7c8ccc(O)cc8CC[C@@H]7c7ccccc7)cc6)CC5)CC4)ccc3C2=O)C(=O)N1` [ARV-471, (3S)-3-[5-[4-[[1-[4-[(1R,2S)-6-hydroxy-2-phenyl-tetralin-1-yl]phenyl]-4-piperidyl]methyl]piperazin-1-yl]-1-oxo-isoindolin-2-yl]piperidine-2,6-dione], the AUC(0-inf) was determined as 5840 ng·h/mL in data set [6]; 7650 ng·h/mL in data set [7] (fasted condition); 15600 ng·h/mL in data set [7] (fed condition); 3220 ng·h/mL in data set [8] (setting [11]); 2480 ng·h/mL in data set [8] (setting [12]); 5230 ng·h/mL in data set [8] (setting [13]). Moreover, the AUC(0-t) in data set [6] turned out to be 5600 ng·h/mL; in data set [7] (fasted condition), 7140 ng·h/mL; in data set [7] (fed condition) it was 14700 ng·h/mL; in data set [8] (setting [11]), 3120 ng·h/mL; in data set [8] (setting [12]), 2360 ng·h/mL; in data set [8] (setting [13]), 5020 ng·h/mL. Also, the Cmax in data set [6] amounted to 381 ng/mL; in data set [7] (fasted condition) it was 415 ng/mL; in data set [7] (fed condition), 860 ng/mL; in data set [8] (setting [11]), 609 ng/mL; in data set [8] (setting [12]) it was 200 ng/mL; in data set [8] (setting [13]), 428 ng/mL. Besides, the “dissolution in the aqueous solution (in words)” value in data set [3] is listed as “very hard to dissolve in the aqueous solution”. Moreover, in data set [7] (API 200 mg oral), the “enhancement of oral absorption by high-fat food vs fasted condition” value was 2 times. Besides, the “enhancement of oral absorption by high-fat food” value in data set [8] (API oral 60 mg, fed vs fasted) amounted to 2 times. The “oral absorption (in words)” value in data set [8] (amorphous API oral 60 mg, fasted dogs) is given as “poor absorption in fasted condition”. For the same compound, in data set [8] (beagle, dog, plasma, oral 60 mg vs i.v. 6 mg, fasted dogs, read-out: absolute bioavailability), the bioavailability is ~7%.
